In data set [1] the test system is Puccinia recondita f. Sp. Tritici. Description: Puccinia recondita f. sp. tritici / wheat / leaf disc preventative (brown rust). The settings on record: foliar, 200 ppm in the applied formulation, wheat leaf segments cv. Kanzler, preventative (inoculated 1 day after application), compared to untreated, read-out: disease control. The class given is in vivo. The method in brief: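 Preventative leaf-segment test, cv. Kanzler on agar: spray compound, inoculate with spore suspension 1 d post-application, hold at 19° C./75% rh, 12 h/12 h light cycle. Read-out = % disease control vs untreated check at 7–9 d; 200 ppm in applied formulation.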

Data set [2] relates to Glomerella lacenarium (Colletotrichum lagenarium). Description: Glomerella lagenarium liquid culture / cucumber / preventative (anthracnose). The class given is cell-based. The note with it: Colletotrichum orbiculare; 20 ppm in the applied formulation; liquid culture (PDB), growth inhibition measured photometrically 3 to 4 days after application; compared to untreated; read-out: disease control. The method in brief:
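Conidia from cryogenic storage were mixed into potato dextrose broth. This was added to compound diluted from DMSO into 0.025% Tween20, tested at 20 ppm. Plates were incubated in the dark at 24 °C and 96% relative humidity, and growth was read photometrically after 2–7 days as % activity versus untreated check.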

The subject of a further data set is Phakopsora pachyrhizi. Description: Phakopsora pachyrhizi / soybean / leaf disc preventative (Asian soybean rust). The class given is in vivo. The settings on record: foliar, 200 ppm in the applied formulation, soybean leaf disks, compared to untreated, read-out: disease control. An outline of the steps:
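Read-out is percent disease control relative to untreated check discs, assessed once untreated discs show adequate disease, 12 to 14 days after application. Compounds, tested at 200 ppm in the applied formulation, are sprayed onto soybean leaf discs one day before inoculation with a spore suspension.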

For data set [3], the system named is Puccinia recondita f. Sp. Tritici. Description: Puccinia recondita f. sp. tritici / wheat / leaf disc curative (brown rust). The class given is in vivo. The settings on record: foliar, 24 h, 200 ppm in the applied formulation, wheat leaf segments cv. Kanzler, curative (applied 1 day after inoculation), compared to untreated, read-out: disease control. An outline of the steps:
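Segments of wheat (cultivar Kanzler) sit on agar and are spore-inoculated first; after one day in darkness at 19° C and 75% RH the diluted formulated compound is sprayed on. A 12 h photoperiod follows at the same temperature and humidity before disease is scored against untreated controls.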

The next data set has as its system Uromyces viciae-fabae. Description: Uromyces viciae-fabae / field bean / leaf disc preventative (faba-bean rust). The class given is in vivo. The settings on record: foliar, 288 h, 100 ppm in the applied formulation, field bean leaf discs, compared to untreated, read-out: disease control. The procedure:
Leaf disks or leaf segments of various plant species are cut from plants grown in a greenhouse. The cut leaf disks or segments are placed in multiwell plates (24-well format) onto water agar. The leaf disks are sprayed with a test solution before (preventative) or after (curative) inoculation. Compounds to be tested are prepared as DMSO solutions (max. 10 mg/ml) which are diluted to the appropriate concentration with 0.025% Tween20 just before spraying. The inoculated leaf disks or segments are incubated under defined conditions (temperature, relative humidity, light, etc.) according to the respective test system. A single evaluation of disease level is carried out 3 to 14 days after inoculation, depending on the pathosystem. Percent disease control relative to the untreated check leaf disks or segments is then calculated. Field bean leaf discs are placed on water agar in multiwell plates (96-well format) and 10 μl of the formulated test compound diluted in acetone and a spreader pipetted onto the leaf disc. Two hours after application leaf discs are inoculated by spraying a spore suspension on the lower leaf surface. The leaf discs are incubated in a climate cabinet at 22° C. with 18 hour light/day and 70% relative humidity. The activity of a compound is assessed as percent disease control compared to untreated when an appropriate level of disease damage appears in untreated check leaf disks (12 days after application). The following compounds at 100 ppm in the applied formulation give at least 80% disease control in this test when compared to untreated control leaf discs under the same conditions, which show extensive disease development.

SMILES strings stand for the structures.

On to `C#CC(C)(C)C(=O)NCc1ccc(-c2noc(C(F)(F)F)n2)cc1` [Compound 1.3, 2,2-dimethyl-N-[[4-[5-(trifluoromethyl)-1,2,4-oxadiazol-3-yl]phenyl]methyl]but-3-ynamide], for which the melting point fell in the range of 55 to 60 °C. Also, the pest or weed control at 200 ppm in data set [1] was not below 80%. The inhibition of growth at 20 ppm in data set [2] was not below 80%. Besides, in the data set on Phakopsora pachyrhizi, the pest or weed control at 200 ppm is not below 80%. Also, in data set [3], the pest or weed control at 200 ppm was not below 80%. In addition, in the data set on Uromyces viciae-fabae, the pest or weed control at 100 ppm is not below 80%.

For the molecule `COC(C)C(=O)NCc1ccc(-c2noc(C(F)(F)F)n2)cc1` (stereo not drawn) [Compound 1.23, 2-methoxy-N-[[4-[5-(trifluoromethyl)-1,2,4-oxadiazol-3-yl]phenyl]methyl]propanamide], the melting point lay in the range of 94 to 100 °C. The pest or weed control at 200 ppm in data set [1] was not below 80%. Besides, the inhibition of growth at 20 ppm in data set [2] was not below 80%. Besides, the pest or weed control at 200 ppm in the data set on Phakopsora pachyrhizi is not below 80%. Also, in data set [3], the pest or weed control at 200 ppm is not below 80%. Besides, the pest or weed control at 100 ppm with Uromyces viciae-fabae is not below 80%.

As usually defined, the melting point is the temperature, or range, at which the solid turns liquid.

For the origin of these results see patent publication US10501425B2, “Microbiocidal oxadiazole derivatives” (SYNGENTA PARTICIPATIONS AG, priority 2015, dated 2019).
